Counter-ions that a name gives are not always drawn. Like-named read-outs stand apart in the source and are kept apart here.
Experiments:
[1] = set-up: method as in earlier work; details: cited from earlier work
[2] = set-up: method as in earlier work; details: cited from earlier work; remark: listed apart in the source
[3] = experimental determination of log Pm/w using MELC; assay type: physicochemical; details: 0.18 M SDS, 10% acetonitrile, 1% octane, 0.3% TEA, pH 6, column 40°C
Experimental: (§1) Three micelle-based mobile phases were developed for the separation of this mixture. In all three cases, the separation was carried out on a Prontosil Kromaplus C18 column (250 × 4.6 mm) of particle size 5 µm, Leonberg, Germany, which was kept at 40°C. […] Separation of the three drugs was accomplished using 254 nm as a detection wavelength, adopting a flow rate of 1.5 ml min^−1.
(§2) Different actual SDS concentrations for each mobile phase (after subtracting the CMC of SDS at 40°C) were plotted versus the inverse of the capacity factor for each drug, using the optimized chromatographic conditions for MLC, HMLC and MELC, where pH was adjusted to 6, and the column temperature was kept at 40°C for the three separation methods.

[4] = experimental determination of log Pm/w using MLC; assay type: physicochemical; details: 0.18 M SDS, 0.3% TEA, pH 6, column 40°C
Experimental: as §1, §2

[5] = experimental determination of log Pm/w using HMLC; assay type: physicochemical; details: for experimental log Pm/w, column temperature 25°C: pH 6, 25°C; for experimental log Pm/w, column temperature 30°C: pH 6, 30°C; for experimental log Pm/w, column temperature 35°C: pH 6, 35°C
[6] = HMLC, pH 3, 40°C, read-out: log P (experimental log Pm/w) pH 3
[7] = HMLC, pH 4, 40°C, read-out: log P (experimental log Pm/w) pH 4

| experimental log Pm/w HMLC ([5]; 0.18 M SDS, 10% acetonitrile, 0.3% TEA, pH 6, column 40°C) | chromatographic logP ([5]; HMLC, pH 5, 40°C, read-out: log P (experimental log Pm/w) pH 5) | experimental log Pm/w, column temperature 40°C ([5]; HMLC, pH 6, 40°C) | chromatographic logP ([5]; HMLC, pH 6, 40°C, read-out: log P (experimental log Pm/w) pH 6) | SMILES | reported log P [1] | pka [2] | experimental log Pm/w MELC [3] | experimental log Pm/w MLC [4] | experimental log Pm/w, column temperature 25°C ([5]; HMLC) | experimental log Pm/w, column temperature 30°C ([5]; HMLC) | experimental log Pm/w, column temperature 35°C ([5]; HMLC) | chromatographic logP [5, 6] | chromatographic logP [5, 7] |
| --- | --- | --- | --- | --- | --- | --- | --- | --- | --- | --- | --- | --- | --- |
| – | – | – | – | CCCN[C@H]1CCc2nc(N)sc2C1 (racemic) [PRM, (RS)-4,5,6,7-tetrahydro-N-6-propyl-2,6-benzothiazolediamine dihydrochloride monohydrate] | 2.34 | 10.5 | 1.316 | 0.9385 | 1.1714 | 2.197 | 2.228 | – | – |
| – | – | – | – | O=C1CCc2ccc(OCCCCN3CCN(c4cccc(Cl)c4Cl)CC3)cc2N1 [ARP, 7-[4-[4-(2,3-dichlorophenyl)piperazin-1-yl]butoxy]-3,4-dihydro-1H-quinolin-2-one] | – | 10 | 2.275 | 2.182 | 3.12 | 3.66 | – | 4.23 | 4.52 |
| 1.648 | 1.1 | 1.648 | 1.65 | c1cnc(N2CCN(Cc3ccc4c(c3)OCO4)CC2)nc1 [PRB, 2-[4-(1,3-benzodioxol-5-ylmethyl)piperazin-1-yl] pyrimidine] | 1.8 | 6.95 | 1.491 | 0.7334 | 0.976 | – | 1.208 | 0.86 | 1.09 |
